Test results from article PMC9325670, “Limited nutrient availability in the tumor microenvironment renders pancreatic tumors sensitive to allosteric IDH1 inhibitors” (Nature Cancer, 2022).

Target: T1, wild-type isocitrate dehydrogenase 1 (wtIDH1) (Homo sapiens, UniProt O75874)
T1 construct: gene IDH1; human recombinant IDH1
Experiment: cell-free fluorometric NADPH formation assay at […] Mg2+
Assay type: biochemical

T1 sequence (O75874 2-414): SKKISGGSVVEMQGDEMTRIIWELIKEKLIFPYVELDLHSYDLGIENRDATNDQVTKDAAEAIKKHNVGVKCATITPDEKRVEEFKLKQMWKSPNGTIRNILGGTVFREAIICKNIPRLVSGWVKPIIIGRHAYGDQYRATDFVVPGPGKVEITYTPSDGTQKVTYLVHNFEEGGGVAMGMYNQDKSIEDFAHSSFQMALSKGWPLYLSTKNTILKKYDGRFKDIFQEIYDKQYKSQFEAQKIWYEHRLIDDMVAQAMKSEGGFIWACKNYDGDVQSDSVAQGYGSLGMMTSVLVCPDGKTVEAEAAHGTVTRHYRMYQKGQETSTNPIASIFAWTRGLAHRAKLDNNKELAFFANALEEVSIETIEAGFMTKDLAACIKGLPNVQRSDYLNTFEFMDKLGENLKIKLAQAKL

IC50: 91.4 nM
Structure (SMILES): CC1(C)CN(C(=O)c2cn[nH]c2)Cc2c(C(=O)Nc3ccc(F)cc3)nn(Cc3ccc(C(F)(F)F)cc3)c21 [FSM-3-002]
